What was measured:
[1] = MIC testing against panel of bacterial strains; assay type: cell-based; conditions: panel of strains; prior to loading in nanoparticles
[2] = system: P. aeruginosa (PAO1, PAM57-15 and PAJG3), B. cepacia (PC783), B. multivorans (HI2229), B. cenocepacia (J2315), B. dolosa, M. tuberculosis and control E. coli …; assay: MIC testing against panel of bacterial strains; assay type: cell-based; conditions: prior to loading in nanoparticles; for MIC range: panel of strains
[3] = system: silver sensitive E. coli J53; assay: MIC against silver sensitive E. coli J53; assay type: cell-based; conditions: Escherichia coli
[4] = system: J53 containing the silver resistance plasmid pMG101; assay: microbe, parasite or virus in culture; assay type: cell-based, E. coli; conditions: Escherichia coli
[5] = system: M. tuberculosis; assay: MIC against M. tuberculosis; assay type: cell-based; conditions: Mycobacterium tuberculosis

With CCCCCCN1C(Cl)=C(Cl)N(C)[CH]1[Ag][O]C(C)=O (stereo not drawn) [compound 9] the MIC90 [1] was 1 µg/mL, the MIC range [2] was 1 to 2 µg/mL and the “antimicrobial effectiveness in MIC testing versus other more water soluble silver metal complexes” value [2] was “more effective”. For the same molecule, the MIC [3] was 1 µg/mL, the MIC [4] was > 10 µg/mL and the MIC [5] was 16000 µg/mL.
For CC(=O)[O][Ag][CH]1N(C)c2c(n(C)c(=O)n(Cc3ccc4ccccc4c3)c2=O)N1C (stereo not drawn) [compound 13], the MIC90 [1] was 0.8 µg/mL, the MIC range [2] was 0.8 to 2 µg/mL and the “antimicrobial effectiveness in MIC testing versus other more water soluble silver metal complexes” value [2] was “more effective”. The MIC [3] was 1 µg/mL, the MIC [4] was > 10 µg/mL and the MIC [5] was 16000 µg/mL.
